Like-named read-outs stand apart in the source and are kept apart here.
Columns and labels:
M. arupense = assay: MIC (CLSI broth dilution), slow-growing NTM isolates; format: cell-based; settings: isolate 11, Other; read-out: MIC
M. simiae = assay: as above; format: cell-based; settings: read-out: MIC

Row | Compound | MIC (M. arupense) [µg/mL] | MIC (M. simiae; isolate 13, Other) [µg/mL] | MIC (M. simiae; isolate 14, Other) [µg/mL] | MIC (M. simiae; isolate 15, Other) [µg/mL]
1 | CO[C@H]1/C=C/O[C@@]2(C)Oc3c(C)c(O)c4c(c3C2=O)C2=NC3(CCN(CC(C)C)CC3)NC2=C(NC(=O)/C(C)=C\C=C\[C@H](C)[C@H](O)[C@@H](C)[C@@H](O)[C@@H](C)[C@H](OC(C)=O)[C@@H]1C)C4=O [RFB, rifabutin] | ≤ 0.25 | ≤ 0.25 | > 2 | > 2
2 | CO[C@H]1/C=C/O[C@@]2(C)Oc3c(C)c(O)c4c(O)c(c(/C=N/N5CCN(C)CC5)c(O)c4c3C2=O)NC(=O)/C(C)=C\C=C\[C@H](C)[C@H](O)[C@@H](C)[C@@H](O)[C@@H](C)[C@H](OC(C)=O)[C@@H]1C [RIF, rifampin] | > 2 | > 2 | > 2 | > 2

— US20250332178A1, “METHODS OF TREATING MYCOBACTERIAL INFECTIONS USING TETRACYCLINE COMPOUNDS” (priority 2018, published 2025)
